Data: patent US20070128217A1 (priority 2003, published 2007)

How the values were obtained:
[1] = tested on: antibodies in sera from SARS patients (sera 1a, 1b, 2, 6, 37, 62, London, SARS-yellow, SARS-green); format: binding, human; parameters: Binding of serum 6 to linear peptides of protein X1 of SARS-CoV Urbani / Binding of serum 37 to linear peptides of protein X1 of SARS-CoV Urbani / Binding of serum 6 to looped/cyclic peptide (PEPSCAN-ELISA) / Binding of serum 37 to looped/cyclic peptide (PEPSCAN-ELISA) / Binding of serum 37 to looped/cyclic peptides of protein X1 of SARS-CoV Urbani / Binding of serum 6 to linear peptides of protein X2 / Binding of serum 37 to linear peptides of protein X2 / Binding of serum 37 to looped/cyclic peptides of protein X2 of SARS-CoV Urbani / Binding of serum 6 to linear peptides of protein M of SARS-CoV Urbani / Binding of serum 37 to linear peptides of protein M of SARS-CoV Urbani / Binding of serum 6 to looped/cyclic peptides of protein M of SARS-CoV Urbani / Binding of serum 37 to looped/cyclic peptides of protein M of SARS-CoV Urbani / Binding of serum 6 to linear peptides of protein X3 of SARS-CoV Urbani / Binding of serum 37 to linear peptides of protein X3 of SARS-CoV Urbani / Binding of serum 37 to looped/cyclic peptides of protein X3 of SARS-CoV Urbani / Binding of serum 6 to linear peptides of protein X4 of SARS-CoV Urbani / Binding of serum 37 to linear peptides of protein X4 of SARS-CoV Urbani / Binding of serum 37 to looped/cyclic peptides of protein X4 of SARS-CoV Urbani / Binding of serum 6 to linear peptides of protein X5 of SARS-CoV Urbani / Binding of serum 37 to linear peptides of protein X5 of SARS-CoV Urbani / Binding of serum 37 to looped/cyclic peptides of protein X5 of SARS-CoV Urbani / Binding of serum 6 to linear peptides of protein N of SARS-CoV Urbani / Binding of serum 37 to linear peptides of protein N of SARS-CoV Urbani / Binding of serum 6 to linear peptide (PEPSCAN-ELISA) / Binding of serum 1a to looped/cyclic peptides of protein N of SARS-CoV Urbani / Binding of serum 1b to looped/cyclic peptides of protein N of SARS-CoV Urbani / Binding of serum 2 to looped/cyclic peptides of protein N of SARS-CoV Urbani / Binding of serum 6 to looped/cyclic peptides of protein N of SARS-CoV Urbani / Binding of serum 37 to looped/cyclic peptides of protein N of SARS-CoV Urbani / Binding of serum 62 to looped/cyclic peptides of protein N of SARS-CoV Urbani / Binding of serum London to looped/cyclic peptides of protein N of SARS-CoV Urbani / Binding of serum SARS-green to looped/cyclic peptides of protein N of SARS-CoV Urbani: unit not given here
[2] = tested on: control sera (pooled serum of ten healthy LUMC hospital workers; commercial negative donor pooled serum from the Dutch bloodbank); format: binding, human; parameters: Binding of Control serum LUMC to linear peptides / Binding of Control serum Blood-bank to linear peptides / Binding of Control serum LUMC to looped peptides / Binding of Control Serum Blood-Bank to Looped peptides / Binding of Control serum LUMC to linear peptides of the protein M of SARS-CoV Urbani / Binding of Control serum Blood-bank to linear peptides of the protein M of SARS-CoV Urbani / Binding of Control serum LUMC to looped peptides of the protein M of SARS-CoV Urbani / Binding of Control Serum Blood-Bank to Looped peptides of the protein M of SARS-CoV Urbani: unit not given here
[3] = tested on: rabbit serum obtained by immunizing a rabbit with the SARS-CoV strain Frankfurt 1; format: binding; parameters: Binding of a rabbit serum to linear peptides / Binding of a rabbit serum to looped peptides / Rabbit serum linear peptides / Rabbit serum looped peptides / Binding of a rabbit serum to linear peptides of protein N of SARS-CoV Urbani (Rabbit serum linear peptides) / Binding of a rabbit serum to looped/cyclic peptides of protein N of SARS-CoV Urbani (Rabbit serum looped peptides): unit not given here

LQASLPFGWLVIGVA
0.7: Binding of serum 1a to linear peptides of protein X1 of SARS-CoV Urbani [1] | Binding of serum 37 to linear peptides of protein X1 of SARS-CoV Urbani [1] | Binding of serum 62 to linear peptides of protein X1 of SARS-CoV Urbani [1]
0.3: Binding of serum 1b to looped/cyclic peptide (PEPSCAN-ELISA) [1] | Binding of serum 2 to looped/cyclic peptide (PEPSCAN-ELISA) [1] | Binding of serum 6 to looped/cyclic peptide (PEPSCAN-ELISA) [1] | Binding of serum SARS-green to linear peptides of protein X1 of SARS-CoV Urbani [1]
0.6: Binding of serum 1b to linear peptides of protein X1 of SARS-CoV Urbani [1] | Binding of serum 2 to linear peptides of protein X1 of SARS-CoV Urbani [1] | Binding of serum SARS-yellow to linear peptides of protein X1 of SARS-CoV Urbani [1] | Binding of Control Serum Blood-Bank to Looped peptides [2]
0.8: Binding of Control serum Blood-bank to linear peptides [2]
0.4: Binding of serum 1a to looped/cyclic peptide (PEPSCAN-ELISA) [1] | Binding of serum 6 to linear peptides of protein X1 of SARS-CoV Urbani [1] | Binding of serum 37 to looped/cyclic peptide (PEPSCAN-ELISA) [1] | Binding of serum SARS-yellow to looped/cyclic peptide (PEPSCAN-ELISA) [1] | Binding of a rabbit serum to looped peptides [3]
0.5: Binding of serum 62 to looped/cyclic peptide (PEPSCAN-ELISA) [1] | Binding of Control serum LUMC to linear peptides [2] | Binding of Control serum LUMC to looped peptides [2] | Binding of a rabbit serum to linear peptides [3]
0.2: Binding of serum London to linear peptides of protein X1 of SARS-CoV Urbani [1] | Binding of serum London to looped/cyclic peptide (PEPSCAN-ELISA) [1] | Binding of serum SARS-green to looped/cyclic peptide (PEPSCAN-ELISA) [1]

LQCINACRIIMRCWL
0.1: Binding of serum SARS-green to linear peptides of protein X1 of SARS-CoV Urbani [1]
0.2: Binding of serum SARS-green to looped/cyclic peptide (PEPSCAN-ELISA) [1]
0.3: Binding of serum 1b to looped/cyclic peptide (PEPSCAN-ELISA) [1] | Binding of serum London to linear peptides of protein X1 of SARS-CoV Urbani [1] | Binding of serum SARS-yellow to linear peptides of protein X1 of SARS-CoV Urbani [1]
1.4: Binding of serum 6 to looped/cyclic peptide (PEPSCAN-ELISA) [1]
recognized: Recognition of the peptide by the rabbit serum [3]
0.6: Binding of serum 2 to looped/cyclic peptide (PEPSCAN-ELISA) [1] | Binding of serum 6 to linear peptides of protein X1 of SARS-CoV Urbani [1] | Binding of serum 37 to looped/cyclic peptide (PEPSCAN-ELISA) [1] | Binding of serum 62 to linear peptides of protein X1 of SARS-CoV Urbani [1] | Binding of Control serum LUMC to looped peptides [2]
0.5: Binding of serum 1a to looped/cyclic peptide (PEPSCAN-ELISA) [1] | Binding of serum 1b to linear peptides of protein X1 of SARS-CoV Urbani [1] | Binding of serum 2 to linear peptides of protein X1 of SARS-CoV Urbani [1]
0.4: Binding of serum SARS-yellow to looped/cyclic peptide (PEPSCAN-ELISA) [1]
0.7: Binding of serum 1a to linear peptides of protein X1 of SARS-CoV Urbani [1] | Binding of serum 37 to linear peptides of protein X1 of SARS-CoV Urbani [1] | Binding of Control Serum Blood-Bank to Looped peptides [2] | Binding of Control serum LUMC to linear peptides [2]
1.7: Binding of serum London to looped/cyclic peptide (PEPSCAN-ELISA) [1]
0.9: Binding of serum 62 to looped/cyclic peptide (PEPSCAN-ELISA) [1] | Binding of Control serum Blood-bank to linear peptides [2]

LQFAYSNRNRFLYII
0.3: Binding of serum 6 to linear peptides of protein M of SARS-CoV Urbani [1]
0.4: Binding of serum SARS-green to looped/cyclic peptides of protein M of SARS-CoV Urbani [1] | Binding of Control serum LUMC to linear peptides of the protein M of SARS-CoV Urbani [2] | Rabbit serum looped peptides [3]
0.0: Binding of serum SARS-yellow to linear peptides of protein M of SARS-CoV Urbani [1]
0.6: Binding of serum 2 to linear peptides of protein M of SARS-CoV Urbani [1] | Binding of serum 37 to looped/cyclic peptides of protein M of SARS-CoV Urbani [1] | Binding of serum 62 to looped/cyclic peptides of protein M of SARS-CoV Urbani [1] | Binding of Control Serum Blood-Bank to Looped peptides of the protein M of SARS-CoV Urbani [2] | Binding of Control serum Blood-bank to linear peptides of the protein M of SARS-CoV Urbani [2] | Binding of Control serum LUMC to looped peptides of the protein M of SARS-CoV Urbani [2] | Rabbit serum linear peptides [3]
0.7: Binding of serum 1a to linear peptides of protein M of SARS-CoV Urbani [1] | Binding of serum 1a to looped/cyclic peptides of protein M of SARS-CoV Urbani [1] | Binding of serum 6 to looped/cyclic peptides of protein M of SARS-CoV Urbani [1] | Binding of serum 37 to linear peptides of protein M of SARS-CoV Urbani [1] | Binding of serum 62 to linear peptides of protein M of SARS-CoV Urbani [1]
0.2: Binding of serum London to linear peptides of protein M of SARS-CoV Urbani [1] | Binding of serum London to looped/cyclic peptides of protein M of SARS-CoV Urbani [1] | Binding of serum SARS-green to linear peptides of protein M of SARS-CoV Urbani [1]
0.5: Binding of serum 1b to linear peptides of protein M of SARS-CoV Urbani [1] | Binding of serum 1b to looped/cyclic peptides of protein M of SARS-CoV Urbani [1] | Binding of serum 2 to looped/cyclic peptides of protein M of SARS-CoV Urbani [1] | Binding of serum SARS-yellow to looped/cyclic peptides of protein M of SARS-CoV Urbani [1]

LQTLVLKMLHSSSLT
0.5: Binding of serum 1b to linear peptides of protein X2 [1] | Binding of serum 2 to linear peptides of protein X2 [1] | Binding of serum 6 to looped/cyclic peptides of protein X2 of SARS-CoV Urbani [1] | Binding of serum London to looped/cyclic peptides of protein X2 of SARS-CoV Urbani [1] | Binding of serum SARS-green to linear peptides of protein X2 [1] | Binding of Control Serum Blood-Bank to Looped peptides [2] | Binding of Control serum LUMC to linear peptides [2] | Binding of Control serum LUMC to looped peptides [2]
0.3: Binding of serum 2 to looped/cyclic peptides of protein X2 of SARS-CoV Urbani [1] | Binding of serum 37 to looped/cyclic peptides of protein X2 of SARS-CoV Urbani [1] | Binding of serum SARS-green to looped/cyclic peptides of protein X2 of SARS-CoV Urbani [1] | Binding of serum SARS-yellow to looped/cyclic peptides of protein X2 of SARS-CoV Urbani [1] | Binding of a rabbit serum to linear peptides [3] | Binding of a rabbit serum to looped peptides [3]
0.7: Binding of serum 1a to linear peptides of protein X2 [1] | Binding of serum SARS-yellow to linear peptides of protein X2 [1] | Binding of Control serum Blood-bank to linear peptides [2]
0.4: Binding of serum 1a to looped/cyclic peptides of protein X2 of SARS-CoV Urbani [1] | Binding of serum 1b to looped/cyclic peptides of protein X2 of SARS-CoV Urbani [1] | Binding of serum 6 to linear peptides of protein X2 [1] | Binding of serum 62 to looped/cyclic peptides of protein X2 of SARS-CoV Urbani [1] | Binding of serum London to linear peptides of protein X2 [1]
0.6: Binding of serum 37 to linear peptides of protein X2 [1] | Binding of serum 62 to linear peptides of protein X2 [1]

LSLLKVTAFQHQNSK
0.2: Binding of serum 1b to looped/cyclic peptides of protein X2 of SARS-CoV Urbani [1] | Binding of serum 6 to linear peptides of protein X2 [1] | Binding of serum 37 to looped/cyclic peptides of protein X2 of SARS-CoV Urbani [1] | Binding of serum 62 to linear peptides of protein X2 [1] | Binding of serum London to linear peptides of protein X2 [1] | Binding of serum SARS-yellow to looped/cyclic peptides of protein X2 of SARS-CoV Urbani [1]
0.1: Binding of serum 1b to linear peptides of protein X2 [1] | Binding of serum 2 to linear peptides of protein X2 [1] | Binding of serum 2 to looped/cyclic peptides of protein X2 of SARS-CoV Urbani [1] | Binding of serum 6 to looped/cyclic peptides of protein X2 of SARS-CoV Urbani [1] | Binding of serum London to looped/cyclic peptides of protein X2 of SARS-CoV Urbani [1] | Binding of serum SARS-green to linear peptides of protein X2 [1] | Binding of serum SARS-green to looped/cyclic peptides of protein X2 of SARS-CoV Urbani [1] | Binding of Control serum Blood-bank to linear peptides [2]
0.4: Binding of serum 1a to linear peptides of protein X2 [1] | Binding of serum 37 to linear peptides of protein X2 [1] | Binding of Control Serum Blood-Bank to Looped peptides [2] | Binding of Control serum LUMC to linear peptides [2] | Binding of a rabbit serum to linear peptides [3]
0.0: Binding of serum SARS-yellow to linear peptides of protein X2 [1]
0.3: Binding of serum 1a to looped/cyclic peptides of protein X2 of SARS-CoV Urbani [1] | Binding of serum 62 to looped/cyclic peptides of protein X2 of SARS-CoV Urbani [1] | Binding of Control serum LUMC to looped peptides [2] | Binding of a rabbit serum to looped peptides [3]
